Assay results: US5643871A, “Antitumor antibiotics” (Bristol-Meyers Squibb Company, priority 1993, dated 1997)
Starred links: 1 amine or outer side, 2 acyl side, 3 side chain; linkers in the order of their positions; H or OH if unused. Positions of bridges follow the written chain, without caps; N, C: chain ends. Non-standard residues stand in square brackets, D forms with d. Residues, ends and D or L forms follow the SMILES beside them. Chains are numbered I, II in the order given. ξ: configuration not given here. *: point of attachment. X2 = CC(C)C(=O)OC1CC=NN([*:1])C1C(=O)[*:2]; ξNMeVal(3-OH) = CNC(C(=O)O)C(C)(C)O; X1 = COc1ccc2nc(C(=O)*)cnc2c1; Sar = CNCC(=O)O

Legend:
P388 murine leukemia = assay: In vivo antitumor activity against P388 leukemia (ip tumor implant / ip drug); settings: once daily for five days; for % T/C: >=125 considered significant; for Median Survival Time: CDF1 female mice, ip P388;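 as to all read-outs here: dosing started the day after tumor implantation, and %T/C expresses median survival of treated mice relative to the saline-treated control group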
Procedure: CDF1 female mice were implanted intraperitoneally with a tumor inoculum of 10^6 ascites cells of P388, and treated with various doses of test compounds. The compounds were administered intraperitoneally once daily for five consecutive days starting on the day after tumor implantation. The ratio of median survival time for a treated group and that for the saline-treated control group was determined and expressed as %T/C.

[1] = test system: Madison 109 (M109) lung carcinoma; settings: sc tumor implantation, intravenous drug administration on days 2, 6 and 10
Procedure: 299- (1981). Briefly, CDF1 female mice were implanted intraperitoneally (ip) with 0.5 ml or subcutaneously (sc) with 0.1 ml of a 2% brei (w/v) of M109 lung carcinoma. The test compound was administered intraperitoneally (in ip tumor implant groups) or intravenously (in sc tumor implant groups) at various dosage levels to groups of mice on days 2, 6 and 10 after tumor implantation. The median survival time and %T/C values were determined as described above.

[2] = test system: Madison 109 (M109) lung carcinoma; assay: Madison 109 lung carcinoma, ip/ip model; format: in vivo, mice; settings: 0.05 mg/kg/dose ip on days 2, 6 and 10; ip tumor implantation
P388 leukemia = assay: iv/iv P388 leukemia protocol; format: in vivo, mice; settings: 0.010 mg/kg/dose iv, once daily for five days; leukemic cells implanted iv

| Compound | Body Weight Change on Day 4 (P388 murine leukemia; dose 0.02 mg/kg/day ip) | % T/C (P388 murine leukemia; dose 0.02 mg/kg/day ip) [%] | Median Survival Time (P388 murine leukemia; dose 0.02 mg/kg/day ip) | Body Weight Change on Day 4 (P388 murine leukemia; dose 0.05 mg/kg/day ip) | % T/C (P388 murine leukemia; dose 0.05 mg/kg/day ip) [%] | Median Survival Time (P388 murine leukemia; dose 0.05 mg/kg/day ip) | Body Weight Change on Day 4 (P388 murine leukemia; dose 0.2 mg/kg/day ip) | % T/C (P388 murine leukemia; dose 0.2 mg/kg/day ip) | Median Survival Time (P388 murine leukemia; dose 0.2 mg/kg/day ip) | Body Weight Change on Day 4 (P388 murine leukemia; dose 0.7 mg/kg/day ip) | % T/C (P388 murine leukemia; dose 0.7 mg/kg/day ip) | Median Survival Time (P388 murine leukemia; dose 0.7 mg/kg/day ip) | % T/C (P388 murine leukemia; dose 2.0 mg/kg/day ip) | Median Survival Time (P388 murine leukemia; dose 2.0 mg/kg/day ip) | also measured |
| --- | --- | --- | --- | --- | --- | --- | --- | --- | --- | --- | --- | --- | --- | --- | --- |
| CCC(=O)OC1CC=NN2C(=O)C(NC(=O)c3cnc4cc(OC)ccc4n3)COC(=O)C(C(C)(C)O)N(C)C(=O)CN(C)C(=O)CNC(=O)C3C(OC(=O)CC)CC=NN3C(=O)C(NC(=O)c3cnc4cc(OC)ccc4n3)COC(=O)C(C(C)(C)O)N(C)C(=O)CN(C)C(=O)CNC(=O)C12 (stereo not drawn) [BMS-181060] |  |  |  |  |  |  |  |  |  |  |  |  |  |  | Body Weight Change on Day 4 (P388 murine leukemia; dose 0.003 mg/kg/day ip): 1.0; % T/C (P388 murine leukemia; dose 0.003 mg/kg/day ip): 105%; Median Survival Time (P388 murine leukemia; dose 0.003 mg/kg/day ip): 11.5; Body Weight Change on Day 4 (P388 murine leukemia; dose 0.01 mg/kg/day ip): 0.1; % T/C (P388 murine leukemia; dose 0.01 mg/kg/day ip): 127%; Median Survival Time (P388 murine leukemia; dose 0.01 mg/kg/day ip): 14.0; Body Weight Change on Day 4 (P388 murine leukemia; dose 0.03 mg/kg/day ip): 0.0; % T/C (P388 murine leukemia; dose 0.03 mg/kg/day ip): 127%; Median Survival Time (P388 murine leukemia; dose 0.03 mg/kg/day ip): 14.0; Body Weight Change on Day 4 (P388 murine leukemia; dose 0.09 mg/kg/day ip): -0.9; % T/C (P388 murine leukemia; dose 0.09 mg/kg/day ip): 91%; Median Survival Time (P388 murine leukemia; dose 0.09 mg/kg/day ip): 10.0; Body Weight Change on Day 4 (P388 murine leukemia; dose 0.27 mg/kg/day ip): 0.7; % T/C (P388 murine leukemia; dose 0.27 mg/kg/day ip): Tox; Median Survival Time (P388 murine leukemia; dose 0.27 mg/kg/day ip): Tox; % T/C (P388 murine leukemia; dose 0.81 mg/kg/day ip): Tox; Median Survival Time (P388 murine leukemia; dose 0.81 mg/kg/day ip): Tox |
| COc1ccc2nc(C(=O)NC3COC(=O)C(C(C)(C)O)N(C)C(=O)CN(C)C(=O)CNC(=O)C4C(OC(=O)C(C)C)CC=NN4C(=O)C(NC(=O)c4cnc5cc(OC)ccc5n4)COC(=O)C(C(C)(C)O)N(C)C(=O)CN(C)C(=O)CNC(=O)C4C(OC(=O)C(C)C)CC=NN4C3=O)cnc2c1 (stereo not drawn) [BMY-45012] (I: X1-S[X2]G[Sar][ξNMeVal(3-OH)] / II: X1-S[X2]G[Sar][ξNMeVal(3-OH)]; ester I:1-II:C, I:C-II:1; configuration not given here) | -0.4 | 115 | 11.5 | 0.3 | 145 | 14.5 | -0.7 | 145% | 14.5 | -0.1 | 95% | 9.5 |  |  | antitumor activity (%T/C) [1]: not significantly active; maximum %T/C [2]: 131%; maximum %T/C (P388 leukemia): 113% |
| COc1ccc2nc(C(=O)NC3COC(=O)C(C(C)(C)O)N(C)C(=O)CN(C)C(=O)CNC(=O)C4C(OC(=O)C(C)C)CC=NN4C(=O)C(NC(=O)c4cnc5cc(OC)ccc5n4)COC(=O)C(C(C)(C)O)N(C)C(=O)CN(C)C(=O)CNC(=O)C4C(OC(=O)CC(C)C)CC=NN4C3=O)cnc2c1 (stereo not drawn) [BMY-46404] | -0.1 | 130 | 13.0 | 0.2 | 140 | 14.0 | -0.0 | 135% | 13.5 | -0.3 | 165% | 16.5 | 80% | 8.5 | Body Weight Change on Day 4 (P388 murine leukemia; dose 2.0 mg/kg/day ip): -0.7 |
| COc1ccc2nc(C(=O)NC3COC(=O)C(C(C)(C)O)N(C)C(=O)CN(C)C(=O)CNC(=O)C4C(OC(=O)CC(C)C)CC=NN4C(=O)C(NC(=O)c4cnc5cc(OC)ccc5n4)COC(=O)C(C(C)(C)O)N(C)C(=O)CN(C)C(=O)CNC(=O)C4C(OC(=O)CC(C)C)CC=NN4C3=O)cnc2c1 (stereo not drawn) [BMY-46405] | -0.8 | 140 | 14.0 | -0.8 | 175 | 17.5 | -3.4 | Tox | Tox |  | Tox | Tox | Tox | Tox |  |
| CCC(=O)OC1CC=NN2C(=O)C(NC(=O)c3cnc4cc(OC)ccc4n3)COC(=O)C(C(C)(C)O)N(C)C(=O)CN(C)C(=O)CNC(=O)C3C(OC(C)=O)CC=NN3C(=O)C(NC(=O)c3cnc4cc(OC)ccc4n3)COC(=O)C(C(C)(C)O)N(C)C(=O)CN(C)C(=O)CNC(=O)C12 (stereo not drawn) [BMY-46407] | 1.0 | 120 | 12.0 | -0.0 | 135 | 13.5 | -0.01 | Tox | Tox |  | Tox | Tox | Tox | Tox |  |
| CCC(=O)OC1CC=NN2C(=O)C(NC(=O)c3cnc4cc(OC)ccc4n3)COC(=O)C(C(C)(C)O)N(C)C(=O)CN(C)C(=O)CNC(=O)C3C(OC(=O)C(C)C)CC=NN3C(=O)C(NC(=O)c3cnc4cc(OC)ccc4n3)COC(=O)C(C(C)(C)O)N(C)C(=O)CN(C)C(=O)CNC(=O)C12 (stereo not drawn) [BMY-46408] | -0.1 | 150 | 15.0 | -0.4 | 155 | 15.5 | 0.2 | 155% | 15.5 | 0.3 | 85% | 8.5 | Tox | Tox |  |
| COc1ccc2nc(C(=O)NC3COC(=O)C(C(C)(C)O)N(C)C(=O)CN(C)C(=O)CNC(=O)C4C(OC(=O)C(C)C)CC=NN4C(=O)C(NC(=O)c4cnc5cc(OC)ccc5n4)COC(=O)C(C(C)(C)O)N(C)C(=O)CN(C)C(=O)CNC(=O)C4C(OC(C)=O)CC=NN4C3=O)cnc2c1 (stereo not drawn) [BMY-46572] |  |  |  |  |  |  |  |  |  |  |  |  |  |  | Body Weight Change on Day 4 (P388 murine leukemia; dose 0.003 mg/kg/day ip): 0.4; % T/C (P388 murine leukemia; dose 0.003 mg/kg/day ip): 110%; Median Survival Time (P388 murine leukemia; dose 0.003 mg/kg/day ip): 11.0; Body Weight Change on Day 4 (P388 murine leukemia; dose 0.01 mg/kg/day ip): 0.5; % T/C (P388 murine leukemia; dose 0.01 mg/kg/day ip): 125%; Median Survival Time (P388 murine leukemia; dose 0.01 mg/kg/day ip): 12.5; Body Weight Change on Day 4 (P388 murine leukemia; dose 0.03 mg/kg/day ip): -0.0; % T/C (P388 murine leukemia; dose 0.03 mg/kg/day ip): 140%; Median Survival Time (P388 murine leukemia; dose 0.03 mg/kg/day ip): 14.0 |
